This passage reports MIC results from ChEMBL document CHEMBL4680225, “Design and development of ((4-methoxyphenyl)carbamoyl) (5-(5-nitrothiophen-2-yl)-1,3,4-thiadiazol-2-yl)amide analogues as Mycobacterium tuberculosis ketol-acid reductoisomerase inhibitors” (Eur J Med Chem, 2020).

One may read the MIC as the lowest concentration found to suppress growth. Higher therefore signals a less susceptible organism.

In brackets after ≈: the same amount, converted by molar mass.

This test concerns Mycobacterium tuberculosis. Kind of test: Antitubercular activity against isoniazid-resistant Mycobacterium tuberculosis clinical isolate measured after 1 week by microplate alamar blue assay. The conditions noted are these: 168 h, time 1 weeks. Format: functional.
`O=[N+]([O-])c1ccc(-c2nnc(NC(=S)Nc3ccc(Cl)cc3)s2)s1` showed an MIC of 12.5 µM (≈ 4.97 µg/mL). This lies in the double-digit micromolar range.

On to `COc1ccc(NC(=S)Nc2nnc(-c3ccc([N+](=O)[O-])o3)s2)cc1`, for which it took 7.81 µM (≈ 2.95 µg/mL) to inhibit growth (MIC).

Take `COc1ccc(NC(=S)Nc2nnc(-c3ccc([N+](=O)[O-])s3)s2)cc1`: it took 0.2 µM (≈ 0.0787 µg/mL) to inhibit growth (MIC).

`O=[N+]([O-])c1ccc(-c2nnc(NC(=S)Nc3ccc(F)cc3)s2)o1` came in with a minimum inhibitory concentration (MIC) of 0.78 µM (≈ 0.285 µg/mL). In turn, `CC(=O)c1ccc(S(=O)(=O)Nc2nnc(-c3ccc([N+](=O)[O-])o3)s2)cc1` gave a minimal inhibitory concentration (MIC) of 12.5 µM (≈ 4.93 µg/mL). The value for `CC[C@@H](CO)NCCN[C@@H](CC)CO` [ETHAMBUTOL] was 7.63 µM (≈ 1.56 µg/mL); that for `NNC(=O)c1ccncc1` [ISONIAZID] was 12.5 µM (≈ 1.71 µg/mL). Turning to `CO[C@H]1/C=C/O[C@@]2(C)Oc3c(C)c(O)c4c(O)c(c(/C=N/N5CCN(C)CC5)c(O)c4c3C2=O)NC(=O)/C(C)=C\C=C\[C@H](C)[C@H](O)[C@@H](C)[C@@H](O)[C@@H](C)[C@H](OC(C)=O)[C@@H]1C` [RIFAMPIN], the MIC was 0.5 µM (≈ 0.411 µg/mL). Compared with the last molecule, the MIC is about 25-fold lower.
